Laboratory results from ChEMBL document CHEMBL1134838, “Structure-activity relationships at monoamine transporters and muscarinic receptors for N-substituted-3alpha-(3'-chloro-, 4'-chloro-, and 4',4''-dichloro-substituted-diphenyl)methoxytropanes” (J Med Chem, 2001).

What was measured:
[1] = target: Norepinephrine transporter (Rattus norvegicus, UniProt Q9WTR4); experiment: Binding affinity for norepinephrine transporter in rat brain using [3H]-nisoxatine as radioligand; type: tissue-based
[2] = target: T1, Muscarinic acetylcholine receptor M1 (Rattus norvegicus, UniProt P08482); experiment: Binding affinity for muscarinic m1 receptor was determined in vitro in rat brain using [3H]pirenzepine as radioligand.; type: tissue-based
T1 sequence (P08482 whole entry): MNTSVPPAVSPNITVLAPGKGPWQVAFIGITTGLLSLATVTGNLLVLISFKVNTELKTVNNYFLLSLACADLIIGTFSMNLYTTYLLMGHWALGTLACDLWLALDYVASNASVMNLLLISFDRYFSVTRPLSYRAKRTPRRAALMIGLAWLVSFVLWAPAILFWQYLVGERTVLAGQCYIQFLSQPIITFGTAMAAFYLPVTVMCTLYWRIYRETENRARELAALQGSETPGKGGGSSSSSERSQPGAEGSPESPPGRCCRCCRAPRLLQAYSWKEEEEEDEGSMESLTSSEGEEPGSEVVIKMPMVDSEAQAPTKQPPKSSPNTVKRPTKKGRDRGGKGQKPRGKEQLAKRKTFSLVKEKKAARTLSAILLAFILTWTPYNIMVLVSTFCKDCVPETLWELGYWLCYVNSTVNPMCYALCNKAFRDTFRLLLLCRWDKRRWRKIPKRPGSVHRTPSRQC

[3] = target: Sodium-dependent serotonin transporter (Rattus norvegicus, UniProt P31652); experiment: Binding affinity for serotonin transporter was determined in vitro in rat brain using [3H]citalopram as radioligand.; type: tissue-based
Sodium-dependent serotonin transporter, sequence (P31652 whole entry): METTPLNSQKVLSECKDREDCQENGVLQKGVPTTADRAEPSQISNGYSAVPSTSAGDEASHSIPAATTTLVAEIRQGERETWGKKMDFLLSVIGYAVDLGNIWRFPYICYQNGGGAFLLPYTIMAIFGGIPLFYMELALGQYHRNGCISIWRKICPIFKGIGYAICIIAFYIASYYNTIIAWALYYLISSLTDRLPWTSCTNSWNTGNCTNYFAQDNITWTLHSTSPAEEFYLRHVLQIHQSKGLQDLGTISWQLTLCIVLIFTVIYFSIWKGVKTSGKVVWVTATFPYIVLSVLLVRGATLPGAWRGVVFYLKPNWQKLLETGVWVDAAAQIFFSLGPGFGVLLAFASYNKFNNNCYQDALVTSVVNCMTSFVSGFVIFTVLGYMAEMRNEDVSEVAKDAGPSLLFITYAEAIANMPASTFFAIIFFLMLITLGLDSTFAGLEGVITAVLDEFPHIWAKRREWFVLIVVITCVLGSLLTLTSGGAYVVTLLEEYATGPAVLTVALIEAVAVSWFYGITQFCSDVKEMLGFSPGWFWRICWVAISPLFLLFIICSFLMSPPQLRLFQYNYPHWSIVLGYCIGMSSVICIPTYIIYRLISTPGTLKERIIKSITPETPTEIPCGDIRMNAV

[4] = target: Sodium-dependent dopamine transporter (Rattus norvegicus, UniProt P23977); experiment: biochemical; type: tissue-based, Brain
Sodium-dependent dopamine transporter, sequence (P23977 whole entry): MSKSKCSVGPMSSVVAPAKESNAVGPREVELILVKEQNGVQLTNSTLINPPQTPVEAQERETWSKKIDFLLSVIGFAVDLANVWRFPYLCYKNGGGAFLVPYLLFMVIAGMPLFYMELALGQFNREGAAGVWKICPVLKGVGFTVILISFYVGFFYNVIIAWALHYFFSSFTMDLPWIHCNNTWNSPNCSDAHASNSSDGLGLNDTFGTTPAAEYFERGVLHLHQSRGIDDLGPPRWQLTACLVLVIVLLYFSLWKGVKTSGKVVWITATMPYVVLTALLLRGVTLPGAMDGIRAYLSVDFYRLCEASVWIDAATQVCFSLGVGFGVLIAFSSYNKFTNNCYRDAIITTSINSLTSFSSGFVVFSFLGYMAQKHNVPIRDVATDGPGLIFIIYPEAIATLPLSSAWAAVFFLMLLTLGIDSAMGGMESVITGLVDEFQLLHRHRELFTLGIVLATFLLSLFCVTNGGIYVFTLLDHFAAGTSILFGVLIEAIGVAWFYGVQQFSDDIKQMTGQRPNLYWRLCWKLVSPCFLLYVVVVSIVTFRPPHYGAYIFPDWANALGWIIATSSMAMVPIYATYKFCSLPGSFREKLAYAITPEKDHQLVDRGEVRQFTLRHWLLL
Description: Binding affinity for dopamine transporter was determined in vitro in rat brain using [3H]WIN-35428 s radioligand

Norepinephrine transporter, sequence (Q9WTR4 whole entry): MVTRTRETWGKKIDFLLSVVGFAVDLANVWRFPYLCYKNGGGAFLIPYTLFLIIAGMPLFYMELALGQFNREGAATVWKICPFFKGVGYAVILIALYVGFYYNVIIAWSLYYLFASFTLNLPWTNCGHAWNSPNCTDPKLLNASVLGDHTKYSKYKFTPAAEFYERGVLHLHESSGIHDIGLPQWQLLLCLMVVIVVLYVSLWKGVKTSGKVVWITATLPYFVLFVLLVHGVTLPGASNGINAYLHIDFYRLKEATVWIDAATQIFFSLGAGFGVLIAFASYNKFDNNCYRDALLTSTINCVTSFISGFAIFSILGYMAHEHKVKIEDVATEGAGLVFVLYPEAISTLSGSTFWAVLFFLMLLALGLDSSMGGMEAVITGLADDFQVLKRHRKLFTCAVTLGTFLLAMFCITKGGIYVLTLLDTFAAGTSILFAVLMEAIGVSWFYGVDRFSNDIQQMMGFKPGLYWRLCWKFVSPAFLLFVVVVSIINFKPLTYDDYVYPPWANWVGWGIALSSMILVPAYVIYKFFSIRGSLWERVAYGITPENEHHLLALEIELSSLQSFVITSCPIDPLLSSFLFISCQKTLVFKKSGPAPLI

| Compound | Ki [1] [µM] | Ki [2] [nM] | Ki [3] [nM] | Ki [4] [nM] |
| --- | --- | --- | --- | --- |
| Clc1ccc(C(OC2CC3CCC(C2)N3)c2ccc(Cl)cc2)cc1 (centres undefined) | 6.04 | 649 | 727 |  |
| CCCCc1cccc(N2C3CCC2CC(OC(c2ccccc2)c2cccc(Cl)c2)C3)c1 (centres undefined) | 1.47 | 564 | 591 | 153 |
| Clc1ccc(C(OC2CC3CCC(C2)N3Cc2ccccc2)c2ccc(Cl)cc2)cc1 (centres undefined) | 7.66 | 8630 | 3610 | 399 |
| Clc1cccc(C(OC2CC3CCC(C2)N3)c2ccccc2)c1 (centres undefined) | 0.508 | 91.7 | 2100 | 26.2 |
| Clc1ccc(C(OC2CC3CCC(C2)N3Cc2ccccc2)c2ccccc2)cc1 (centres undefined) | 13 | 2560 | 3530 | 365 |
| CCCc1cccc(N2[C@@H]3CC[C@H]2C[C@H](OC(c2ccccc2)c2cccc(Cl)c2)C3)c1 (some centres undefined) | 1.81 | 337 | 429 | 101 |
| C=CCN1C2CCC1CC(OC(c1ccccc1)c1ccc(Cl)cc1)C2 (centres undefined) | 4.72 | 127 | 2330 | 84.2 |
| CCCCc1cccc(N2[C@@H]3CC[C@H]2C[C@H](OC(c2ccccc2)c2ccc(Cl)cc2)C3)c1 (some centres undefined) | 2.32 | 1430 | 737 | 53.3 |
| CCCc1cccc(N2[C@@H]3CC[C@H]2C[C@H](OC(c2ccc(Cl)cc2)c2ccc(Cl)cc2)C3)c1 | 19.8 | 3050 | 585 | 158 |
| CCCCc1cccc(N2[C@@H]3CC[C@H]2C[C@H](OC(c2ccc(Cl)cc2)c2ccc(Cl)cc2)C3)c1 | 4.95 | 3730 | 659 | 85 |
| CN1[C@@H]2CC[C@H]1C[C@@H](OC(c1ccccc1)c1cccc(Cl)c1)C2 (some centres undefined) | 0.451 |  | 258 |  |
| CCCc1cccc(N2[C@H]3CC[C@]2(C)C[C@@H](OC(c2ccccc2)c2ccc(Cl)cc2)C3)c1 (some centres undefined) | 10.3 | 397 | 302 | 148 |
| C=CCN1C2CCC1CC(OC(c1ccccc1)c1cccc(Cl)c1)C2 (centres undefined) | 1.23 | 69.7 | 1200 | 33.6 |
| Clc1ccc(C(OC2CC3CCC(C2)N3)c2ccccc2)cc1 (centres undefined) | 1.01 | 95.5 | 1320 | 36.8 |
| C=CCN1C2CCC1CC(OC(c1ccc(Cl)cc1)c1ccc(Cl)cc1)C2 (centres undefined) | 4.14 | 127 | 568 | 54.6 |
| Clc1cccc(C(OC2CC3CCC(C2)N3Cc2ccccc2)c2ccccc2)c1 (centres undefined) | 6.46 | 674 | 1680 | 191 |
| CN1C2CCC1CC(OC(c1ccccc1)c1ccc(Cl)cc1)C2 (centres undefined) | 1.47 | 7.9 | 5120 |  |
